The values below are quoted from earlier work in patent publication US8822536B2, “Dietary supplements containing terpenoid acids of maslinic acid or oleanolic acid and process for enhancing muscle mass in mammals” (FHG Corporation d/b/a Integrity Nutraceuticals, priority 2009, dated 2014).

Data set [1] has as its system juvenile dentex fish. The settings on record: 80 mg kg-1.
In data set [2] the test system is trout.
Data set [3] has as its system rainbow trout liver.
For data set [4], the target named is T1, glycogen phosphorylase (Oryctolagus cuniculus, UniProt P00489).
T1 sequence (P00489 2-843 limits assumed): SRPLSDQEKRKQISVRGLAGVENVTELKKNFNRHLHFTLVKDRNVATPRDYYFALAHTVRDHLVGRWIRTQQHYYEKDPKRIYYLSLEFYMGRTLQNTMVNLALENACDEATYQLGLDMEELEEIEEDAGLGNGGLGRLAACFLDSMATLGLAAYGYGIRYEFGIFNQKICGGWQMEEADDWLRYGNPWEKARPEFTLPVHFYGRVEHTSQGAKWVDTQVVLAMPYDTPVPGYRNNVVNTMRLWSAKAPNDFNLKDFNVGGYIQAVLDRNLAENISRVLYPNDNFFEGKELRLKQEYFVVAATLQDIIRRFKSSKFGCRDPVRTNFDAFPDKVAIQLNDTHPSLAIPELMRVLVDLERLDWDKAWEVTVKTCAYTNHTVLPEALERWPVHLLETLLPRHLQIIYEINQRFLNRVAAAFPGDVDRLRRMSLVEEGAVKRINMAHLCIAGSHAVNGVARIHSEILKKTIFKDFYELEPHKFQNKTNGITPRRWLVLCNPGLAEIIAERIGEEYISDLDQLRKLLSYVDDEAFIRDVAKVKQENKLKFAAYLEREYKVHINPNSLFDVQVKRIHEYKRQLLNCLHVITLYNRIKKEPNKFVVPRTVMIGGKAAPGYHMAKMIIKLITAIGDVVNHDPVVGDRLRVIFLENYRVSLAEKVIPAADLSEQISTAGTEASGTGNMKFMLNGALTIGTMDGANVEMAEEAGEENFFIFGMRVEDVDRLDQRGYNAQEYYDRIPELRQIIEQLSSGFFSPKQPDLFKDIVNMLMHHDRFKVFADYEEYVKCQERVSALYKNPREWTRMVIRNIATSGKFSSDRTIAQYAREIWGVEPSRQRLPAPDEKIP

The mark [5] stands for this setting: trout fed 250 mg kg-1, with respect to a control.
Where [6] appears, read: trout fed 25 and 250 mg kg-1, white muscle.

Take `CC1(C)CC[C@]2(C(=O)O)CC[C@]3(C)C(=CC[C@@H]4[C@@]5(C)C[C@@H](O)[C@H](O)C(C)(C)[C@@H]5CC[C@]43C)[C@@H]2C1` [maslinic acid, 2-α,3-β-dihydroxyolean-12-en-28-oic acid]: the “growth of juvenile dentex fish” value in data set [1] is “retard”. In addition, in data set [2] (dietary maslinic acid, trout), the “protein degradation rate, relative (KD) and absolute (AD)” value is “stimulated”; the protein synthesis entry is on record as “induces higher protein synthesis”. For the same compound, in data set [2] (setting [5]), the “feed-efficiency ratio (FER)” value is reported as “increased” and the “protein-efficiency ratio (PER)” value is recorded as “increased”. Besides, in data set [2] (setting [6]), the “absolute protein-degradation rate (AD)” value is given as “only a minor increase”; the “fractional protein-degradation rate (KD)” value is “no significant changes”; the “protein-synthesis rate (KS and AS)” value was “increased”. For the same compound, the “protein-accumulation rates (KG and AG)” value in data set [2] (trout fed with maslinic acid) is listed as “high protein-accumulation rates”. In addition, the “accumulation of glycogen in liver” value in data set [3] is listed as “high accumulation of glycogen”. Moreover, in data set [4], the glycogen phosphorylase inhibition entry was “new type of glycogen phosphorylase inhibitor”.
